Measurements reported in PubChem BioAssay AID256 (DTP/NCI, 2004).
Values joined by “and” are separate entries in the source; they are usually repeats but may differ in a detail not shown here. Equal values may be shown once. Toxic doses and inconclusive results are not listed. Rule for the calls: active = survival T/C of 150% or more; inactive = T/C below 125% in these data.

System: CD2F1 mice, L1210 leukemia ip, survival T/C
Assay: NCI In Vivo Anticancer Drug Screen. Data for tumor model L1210 Leukemia (intraperitoneal) in CD2F1 (CDF1) mice
Conditions: endpoint: mean survival time, higher = longer survival
Procedure, shortened: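 Compound-dosed mice with transplantable tumor versus matched vehicle controls; endpoint ratio T/C reported.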

[1] = dose: 100.0 mg/kg/injection, schedule: Q04DX003 (ip), vehicle: saline with Tween-80
[2] = dose: 200.0 mg/kg/injection, schedule: Q04DX003 (ip), vehicle: saline with Tween-80
[3] = dose: 400.0 mg/kg/injection, schedule: Q04DX003 (ip), vehicle: saline with Tween-80
[4] = dose: 100.0 mg/kg/injection, schedule: Q01DX001 (ip), vehicle: saline with Tween-80
[5] = dose: 200.0 mg/kg/injection, schedule: Q01DX001 (ip), vehicle: saline with Tween-80
[6] = dose: 400.0 mg/kg/injection, schedule: Q01DX001 (ip), vehicle: saline with Tween-80
[7] = dose: 100.0 mg/kg/injection, schedule: Q01DX009 (ip), vehicle: saline with Tween-80
[8] = dose: 200.0 mg/kg/injection, schedule: Q01DX009 (ip), vehicle: saline with Tween-80
[9] = dose: 400.0 mg/kg/injection, schedule: Q01DX009 (ip), vehicle: saline with Tween-80
[10] = dose: 50.0 mg/kg/injection, schedule: Q04DX002 (ip), vehicle: saline with Tween-80

Measured: T/C

CCc1nc(N)nc(N)c1-c1ccc(Cl)cc1
inactive: dose: 2.0 mg/kg/injection, schedule: Q03HX008 (ip), vehicle: saline 92 % of control | dose: 2.0 mg/kg/injection, schedule: Q03HX016 (ip), vehicle: saline 89 % of control | dose: 2.0 mg/kg/injection, schedule: Q03HX024 (ip), vehicle: saline 88 % of control | dose: 4.0 mg/kg/injection, schedule: Q03HX008 (ip), vehicle: saline 90 % of control | dose: 4.0 mg/kg/injection, schedule: Q03HX016 (ip), vehicle: saline 91 % of control | dose: 4.0 mg/kg/injection, schedule: Q03HX024 (ip), vehicle: saline 86 % of control | dose: 8.0 mg/kg/injection, schedule: Q01DX009 (oral), vehicle: saline 92 % of control | dose: 8.0 mg/kg/injection, schedule: Q03HX008 (ip), vehicle: saline 92 % of control | dose: 8.0 mg/kg/injection, schedule: Q03HX016 (ip), vehicle: saline 87 % of control | dose: 8.0 mg/kg/injection, schedule: Q03HX024 (ip), vehicle: saline 88 % of control and 93 % of control | dose: 16.0 mg/kg/injection, schedule: Q01DX001 (ip), vehicle: saline 107 % of control | dose: 16.0 mg/kg/injection, schedule: Q01DX001 (oral), vehicle: saline 101 % of control | dose: 16.0 mg/kg/injection, schedule: Q01DX009 (ip), vehicle: saline 101 % of control | dose: 16.0 mg/kg/injection, schedule: Q01DX009 (oral), vehicle: saline 95 % of control | dose: 16.0 mg/kg/injection, schedule: Q03HX008 (ip), vehicle: saline 89 % of control and 91 % of control | dose: 16.0 mg/kg/injection, schedule: Q03HX016 (ip), vehicle: saline 91 % of control and 100 % of control | dose: 16.0 mg/kg/injection, schedule: Q03HX024 (ip), vehicle: saline 90 % of control and 96 % of control | dose: 16.0 mg/kg/injection, schedule: Q04DX003 (ip), vehicle: saline 88 % of control | dose: 16.0 mg/kg/injection, schedule: Q08DX002 (ip), vehicle: saline 97 % of control | dose: 32.0 mg/kg/injection, schedule: Q01DX001 (ip), vehicle: saline 98 % of control | dose: 32.0 mg/kg/injection, schedule: Q01DX001 (oral), vehicle: saline 96 % of control | dose: 32.0 mg/kg/injection, schedule: Q01DX009 (ip), vehicle: saline 106 % of control | dose: 32.0 mg/kg/injection, schedule: Q01DX009 (oral), vehicle: saline 112 % of control | dose: 32.0 mg/kg/injection, schedule: Q04DX003 (ip), vehicle: saline 87 % of control | dose: 32.0 mg/kg/injection, schedule: Q08DX002 (ip), vehicle: saline 94 % of control | dose: 64.0 mg/kg/injection, schedule: Q01DX001 (ip), vehicle: saline 100 % of control | dose: 64.0 mg/kg/injection, schedule: Q01DX001 (oral), vehicle: saline 98 % of control | dose: 64.0 mg/kg/injection, schedule: Q01DX009 (ip), vehicle: saline 108 % of control | dose: 64.0 mg/kg/injection, schedule: Q01DX009 (oral), vehicle: saline 120 % of control and 96 % of control | dose: 64.0 mg/kg/injection, schedule: Q04DX003 (ip), vehicle: saline 86 % of control and 95 % of control | dose: 64.0 mg/kg/injection, schedule: Q08DX002 (ip), vehicle: saline 95 % of control | dose: 128.0 mg/kg/injection, schedule: Q01DX001 (ip), vehicle: saline 100 % of control | dose: 128.0 mg/kg/injection, schedule: Q01DX001 (oral), vehicle: saline 91 % of control | dose: 128.0 mg/kg/injection, schedule: Q04DX003 (ip), vehicle: saline 96 % of control | dose: 128.0 mg/kg/injection, schedule: Q08DX002 (ip), vehicle: saline 93 % of control and 101 % of control

O=C(CO)c1ccccc1
inactive: [1] 97 % of control | [2] 92 % of control | [3] 92 % of control

Nc1nc(N)c2nc(-c3ccccc3)c(N)nc2n1
inactive: dose: 12.5 mg/kg/injection, schedule: Q01DX009 (ip), vehicle: saline with Tween-80 97 % of control | dose: 12.5 mg/kg/injection, schedule: Q04DX003 (ip), vehicle: saline with Tween-80 102 % of control | dose: 25.0 mg/kg/injection, schedule: Q01DX009 (ip), vehicle: saline with Tween-80 98 % of control | dose: 25.0 mg/kg/injection, schedule: Q04DX003 (ip), vehicle: saline with Tween-80 95 % of control | dose: 50.0 mg/kg/injection, schedule: Q01DX009 (ip), vehicle: saline with Tween-80 94 % of control | dose: 50.0 mg/kg/injection, schedule: Q04DX003 (ip), vehicle: saline with Tween-80 98 % of control

COCCNP(=S)(OC)OC
inactive: [4] 100 % of control | [5] 101 % of control | [6] 106 % of control

C1SCc2c1c1c(c3c2CSC3)CSC1
inactive: [4] 87 % of control | [6] 87 % of control

CCCCCCCCCCCCCCCCCCCCC1CCCCC1
inactive: [4] 91 % of control | [5] 98 % of control | [6] 92 % of control

CCN(CC)CCNCCCNCCN(CC)CC
inactive: dose: 100.0 mg/kg/injection, schedule: Q01DX009 (ip), vehicle: saline 92 % of control | [1] 98 % of control | dose: 200.0 mg/kg/injection, schedule: Q01DX009 (ip), vehicle: saline 92 % of control | [2] 95 % of control | dose: 400.0 mg/kg/injection, schedule: Q01DX009 (ip), vehicle: saline 87 % of control | [3] 95 % of control

CC12CCC(=O)C=C1CCC1C2CCC2(C)C(C(=O)Cn3c(=O)cc[nH]c3=O)CCC12 (stereo unspecified)
inactive: dose: 12.5 mg/kg/injection, schedule: Q04DX003 (ip), vehicle: Klucel (hydroxypropylcellulose) (HPC) 91 % of control | dose: 25.0 mg/kg/injection, schedule: Q04DX003 (ip), vehicle: Klucel (hydroxypropylcellulose) (HPC) 97 % of control | dose: 50.0 mg/kg/injection, schedule: Q04DX003 (ip), vehicle: Klucel (hydroxypropylcellulose) (HPC) 91 % of control | dose: 100.0 mg/kg/injection, schedule: Q04DX003 (ip), vehicle: Klucel (hydroxypropylcellulose) (HPC) 95 % of control | dose: 200.0 mg/kg/injection, schedule: Q04DX003 (ip), vehicle: Klucel (hydroxypropylcellulose) (HPC) 103 % of control

COC(=O)c1ccccc1Nc1c2ccc(Cl)cc2nc2c1c(C)nn2C
inactive: [7] 96 % of control | [1] 101 % of control | [8] 100 % of control | [2] 95 % of control | [9] 97 % of control | [3] 106 % of control

C[N+](C)(C)/N=C/c1ccc(Cl)cc1
inactive: [10] 93 % of control

C=C(C)c1c2ccccc2cc2cccc(Sc3ccccc3)c12
inactive: [7] 95 % of control | [8] 93 % of control | [9] 95 % of control

COc1cc(C(=O)N(C(C)C)C2CCCCC2)cc(OC)c1OC
inactive: [1] 104 % of control | [2] 96 % of control

CCOc1ccc([NH-])c([NH-])c1.[Cl][Pt+2][Cl]
inactive: dose: 2.5 mg/kg/injection, schedule: Q01DX009 (ip), vehicle: distilled water + Tween-80 100 % of control | dose: 5.0 mg/kg/injection, schedule: Q01DX009 (ip), vehicle: distilled water + Tween-80 107 % of control | dose: 10.0 mg/kg/injection, schedule: Q01DX009 (ip), vehicle: distilled water + Tween-80 91 % of control

O=C(O)c1c(Sc2ccccc2)cccc1Sc1ccccc1
inactive: dose: 25.0 mg/kg/injection, schedule: Q04DX002 (ip), vehicle: saline with Tween-80 93 % of control | [10] 93 % of control | [4] 89 % of control | dose: 100.0 mg/kg/injection, schedule: Q04DX002 (ip), vehicle: saline with Tween-80 93 % of control | [5] 93 % of control | dose: 200.0 mg/kg/injection, schedule: Q04DX002 (ip), vehicle: saline with Tween-80 95 % of control | [6] 90 % of control | dose: 400.0 mg/kg/injection, schedule: Q04DX002 (ip), vehicle: saline with Tween-80 87 % of control

COc1cc2c(c(OC)c1OC)-c1ccc(SC)c(=O)cc1[C@@H](NC1OC(CO)C(O)C(O)C1O)CC2 (stereo partly specified)
inactive: dose: 3.13 mg/kg/injection, schedule: Q01DX009 (ip), vehicle: saline 117 % of control

C/C(=N/O)c1ccc(F)cc1
inactive: [7] 100 % of control | [1] 94 % of control and 97 % of control | [8] 93 % of control and 95 % of control | [2] 94 % of control | [9] 94 % of control and 102 % of control | [3] 89 % of control and 96 % of control

O=C(c1cccnc1)n1cc2c(n1)C1=C(CCCC1)CC2
inactive: dose: 50.0 mg/kg/injection, schedule: Q01DX009 (ip), vehicle: Klucel (hydroxypropylcellulose) (HPC) 90 % of control | dose: 100.0 mg/kg/injection, schedule: Q01DX009 (ip), vehicle: Klucel (hydroxypropylcellulose) (HPC) 105 % of control | dose: 200.0 mg/kg/injection, schedule: Q01DX009 (ip), vehicle: Klucel (hydroxypropylcellulose) (HPC) 102 % of control
